Active and inactive are the calls of the source. The calls are words filed in the database; no cut-off is given here.
biological target: 5-hydroxytryptamine receptor 7 (Homo sapiens, UniProt P34969); test: Displacement of [3H]-5-CT from human 5-HT7R expressed in human HEK293 cells assessed as inhibitory constant incubated for 1 hr by radioligand binding assay; type: cell-based; conditions: not given
Sequence (P34969 whole entry): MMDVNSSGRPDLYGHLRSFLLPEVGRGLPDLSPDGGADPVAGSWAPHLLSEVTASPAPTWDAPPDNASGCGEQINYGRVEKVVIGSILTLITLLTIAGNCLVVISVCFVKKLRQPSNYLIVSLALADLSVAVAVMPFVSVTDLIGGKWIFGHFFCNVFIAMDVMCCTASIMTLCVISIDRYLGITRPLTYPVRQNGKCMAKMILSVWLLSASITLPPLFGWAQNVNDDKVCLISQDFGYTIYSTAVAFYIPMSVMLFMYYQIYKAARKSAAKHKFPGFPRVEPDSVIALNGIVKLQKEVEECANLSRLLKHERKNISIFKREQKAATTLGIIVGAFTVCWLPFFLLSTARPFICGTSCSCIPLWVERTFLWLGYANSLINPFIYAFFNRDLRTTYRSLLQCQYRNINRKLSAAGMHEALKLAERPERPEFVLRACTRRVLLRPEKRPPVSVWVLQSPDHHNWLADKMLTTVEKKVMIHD

Compared with `Cc1cc(Cl)ccc1OCc1nc(N)nc(N2CCN(C)CC2)n1`, `CN1CCN(c2nc(N)nc(COc3ccc(Cl)cc3Cl)n2)CC1` is 4-fold lower in Ki: 15.2 µM for the first, 3.8 µM for the second. The second binds more tightly here.

First: CN1CCN(c2nc(N)nc(CS(=O)(=O)c3ccccc3Cl)n2)CC1
Second: CN1CCN(c2nc(N)nc(CSc3ccccc3Cl)n2)CC1
The Ki of the first is 160-fold higher: 98.4 µM for the first, 0.614 µM for the second. The second binds more tightly here.

Compared with `Cc1cc(OCc2nc(N)nc(N3CCN(C)CC3)n2)ccc1Cl`, `Cc1cccc(OCc2nc(N)nc(N3CCN(C)CC3)n2)c1` is 1.8-fold higher in Ki: 5.84 µM for the first, 10.7 µM for the second.

Going from `CC(Sc1ccccc1Cl)c1nc(N)nc(N2CCN(C)CC2)n1` (stereo not given) to `CC(Oc1ccccc1Cl)c1nc(N)nc(N2CCN(C)CC2)n1` (stereo not given), the Ki rises from 4.57 µM to 38.7 µM (8.5-fold).

Going from `CN1CCN(c2nc(N)nc(CSc3ccccc3)n2)CC1` to `CN1CCN(c2nc(N)nc(COc3cccc(Cl)c3)n2)CC1`, the Ki rises from 2.87 µM to 5.82 µM (2-fold). The first binds more tightly here.

tested on: Rattus norvegicus; test: Antidepressant activity in Wistar rat assessed as reduction in immobility at 0.1 to 1 mg/kg, ip measured after 60 mins by forced swim test; type: functional, organism-based; conditions: not given

With `CC(Sc1ccccc1Cl)c1nc(N)nc(N2CCN(C)CC2)n1` (stereo not given) the Activity was “inactive”.

tested on: not listed separately; test: Mutagenicity in Salmonella typhimurium TA100 assessed as fold increase over MCB at 10 uM preincubated for 90 mins and measured after 72 hrs by Ames test; type: toxicity; conditions: salmonella enterica subsp. enterica serovar typhimurium

Compared with `CC(Sc1ccccc1Cl)c1nc(N)nc(N2CCN(C)CC2)n1` (stereo not given), `CC(Oc1ccccc1Cl)c1nc(N)nc(N2CCN(C)CC2)n1` (stereo not given) is higher in “fold change (FC)” value: 0.76 for the first, 1 for the second.

tested on: not listed separately; test: Mutagenicity in Salmonella typhimurium TA100 assessed as increase in revertant colonies at 10 uM preincubated for 90 mins and measured after 72 hrs by Ames test; type: toxicity; conditions: salmonella enterica subsp. enterica serovar typhimurium

Going from `CC(Sc1ccccc1Cl)c1nc(N)nc(N2CCN(C)CC2)n1` (stereo not given) to `CC(Oc1ccccc1Cl)c1nc(N)nc(N2CCN(C)CC2)n1` (stereo not given), the Activity rises from 8.33 to 11.

tested on: not listed separately; test: Selectivity ratio of CC50 for cytotoxicity against human SH-SY5Y cells to ratio of Ki for human 5-HT6R expressed in human HEK293 cells; conditions: not given

`CC(Sc1ccccc1Cl)c1nc(N)nc(N2CCN(C)CC2)n1` (stereo not given) gave a Selectivity ratio greater than 4000.
Compound `CC(Oc1ccccc1Cl)c1nc(N)nc(N2CCN(C)CC2)n1` (stereo not given) has a Selectivity ratio greater than 4000.

biological target: T1, 5-hydroxytryptamine receptor 6 (Homo sapiens, UniProt P50406); test: Agonist activity at recombinant human 5HT6 receptor expressed in CHOK1 cells co-expressing Galpha16/aequorin assessed as increase in calcium mobilization and measured for 60 secs in presence of coelenterazine by luminescence assay relative to control; type: functional, cell-based; conditions: not given
T1 sequence (P50406 whole entry): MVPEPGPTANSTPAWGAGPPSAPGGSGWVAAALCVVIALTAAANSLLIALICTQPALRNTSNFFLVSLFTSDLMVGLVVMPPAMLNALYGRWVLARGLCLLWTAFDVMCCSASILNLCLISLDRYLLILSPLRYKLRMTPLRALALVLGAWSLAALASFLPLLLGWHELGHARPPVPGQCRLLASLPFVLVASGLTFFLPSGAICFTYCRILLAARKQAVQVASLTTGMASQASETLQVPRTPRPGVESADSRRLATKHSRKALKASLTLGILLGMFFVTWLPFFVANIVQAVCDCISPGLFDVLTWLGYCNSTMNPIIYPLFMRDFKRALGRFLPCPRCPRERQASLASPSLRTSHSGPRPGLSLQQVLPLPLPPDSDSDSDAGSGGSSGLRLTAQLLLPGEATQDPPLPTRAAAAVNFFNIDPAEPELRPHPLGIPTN

`CC(Sc1ccccc1Cl)c1nc(N)nc(N2CCN(C)CC2)n1` (stereo not given) and `CC(Oc1ccccc1Cl)c1nc(N)nc(N2CCN(C)CC2)n1` (stereo not given) are the same in Emax: 1% for the first, 1% for the second.

tested on: Rattus norvegicus; test: Antidepressant activity in Wistar rat assessed as ambulation-X movement moved at 1 mg/kg, ip pretreated for 60 mins and measured for 5 mins by open field test (reference value: 213 +/- 13); type: functional; conditions: not given

With `CC(Oc1ccccc1Cl)c1nc(N)nc(N2CCN(C)CC2)n1` (stereo not given) the Activity was 269.

tested on: Rattus norvegicus; test: Antidepressant activity in Wistar rat assessed as reduction in immobility at 1 mg/kg, ip measured after 60 mins by forced swim test; type: functional; set-up: scale not given: the % may be the effect or the level left; conditions: not given

For `CC(Oc1ccccc1Cl)c1nc(N)nc(N2CCN(C)CC2)n1` (stereo not given), the Activity was 22%.

biological target: 5-hydroxytryptamine receptor 2A (Homo sapiens, UniProt P28223); test: Displacement of [3H]-Ketanserin from human 5-HT2A expressed in CHO-K1 cells incubated for […] by radioligand binding assay; type: cell-based; conditions: not given
Sequence (P28223 whole entry): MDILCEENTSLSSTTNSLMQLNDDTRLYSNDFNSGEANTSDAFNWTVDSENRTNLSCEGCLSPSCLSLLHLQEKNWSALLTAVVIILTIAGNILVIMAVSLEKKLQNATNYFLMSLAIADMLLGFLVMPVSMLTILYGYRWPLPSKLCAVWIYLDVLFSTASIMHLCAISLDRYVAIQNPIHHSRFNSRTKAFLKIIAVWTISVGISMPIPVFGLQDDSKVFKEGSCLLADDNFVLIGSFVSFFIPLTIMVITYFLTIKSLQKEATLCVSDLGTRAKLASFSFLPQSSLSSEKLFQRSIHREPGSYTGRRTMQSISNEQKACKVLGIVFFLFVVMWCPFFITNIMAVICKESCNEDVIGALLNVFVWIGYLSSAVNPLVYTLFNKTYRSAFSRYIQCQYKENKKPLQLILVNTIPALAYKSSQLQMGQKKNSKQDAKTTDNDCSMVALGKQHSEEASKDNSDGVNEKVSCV

First: CN1CCN(c2nc(N)nc(CS(=O)(=O)c3ccccc3Cl)n2)CC1
Second: CN1CCN(c2nc(N)nc(CSc3ccccc3)n2)CC1
The Ki of the first is 59-fold higher: 11.6 µM for the first, 0.197 µM for the second. The second binds more tightly here.

Going from `Cc1cc(OCc2nc(N)nc(N3CCN(C)CC3)n2)ccc1Cl` to `Cc1cccc(OCc2nc(N)nc(N3CCN(C)CC3)n2)c1`, the Ki rises from 0.197 µM to 2.27 µM (12-fold). The first binds more tightly here.

First: CC(Sc1ccccc1Cl)c1nc(N)nc(N2CCN(C)CC2)n1 (stereo not given)
Second: CC(Oc1ccccc1Cl)c1nc(N)nc(N2CCN(C)CC2)n1 (stereo not given)
The Ki of the first is 4.5-fold lower: 0.407 µM for the first, 1.83 µM for the second. The first binds more tightly here.

biological target: T1, 5-hydroxytryptamine receptor 6; test: Antagonist activity at recombinant human 5HT6 receptor expressed in CHOK1 cells co-expressing Galpha16/aequorin assessed as reduction in serotonin-induced calcium mobilization flux preincubated for 30 mins followed by serotonin addition in presence of coelenterazine h by luminescence assay; type: functional, cell-based; conditions: not given

`CC(Sc1ccccc1Cl)c1nc(N)nc(N2CCN(C)CC2)n1` (stereo not given) and `CC(Oc1ccccc1Cl)c1nc(N)nc(N2CCN(C)CC2)n1` (stereo not given) are within 1.5-fold of each other in Kb: 0.0029 µM for the first, 0.003 µM for the second.

tested on: SH-SY5Y; test: Cytotoxicity against human SH-SY5Y cells assessed as decrease in cell viability at 100 uM incubated for 72 hrs by MTS assay; type: cell-based; conditions: not given

In the case of `CC(Sc1ccccc1Cl)c1nc(N)nc(N2CCN(C)CC2)n1` (stereo not given), the Activity is reported as “Toxic”.
In the case of `CC(Oc1ccccc1Cl)c1nc(N)nc(N2CCN(C)CC2)n1` (stereo not given), the Activity is reported as “Toxic”.

tested on: Rattus norvegicus; test: Antidepressant activity in Wistar rat assessed as rear movement moved at 1 mg/kg, ip pretreated for 60 mins and measured for 5 mins by open field test (reference value: 68 +/- 7); type: functional; conditions: not given

With `CC(Oc1ccccc1Cl)c1nc(N)nc(N2CCN(C)CC2)n1` (stereo not given) the Activity was 46.

tested on: not listed separately; test: Ratio of test compound CC50 to doxorubicin CC50 for cytotoxicity against human SH-SY5Y cells incubated for 72 hrs by MTS assay; type: cell-based; conditions: not given

`CC(Sc1ccccc1Cl)c1nc(N)nc(N2CCN(C)CC2)n1` (stereo not given) and `CC(Oc1ccccc1Cl)c1nc(N)nc(N2CCN(C)CC2)n1` (stereo not given) are the same in selectivity ratio at 72 h: 100 for the first, 100 for the second.

biological target: D(2) dopamine receptor (Homo sapiens, UniProt P14416); test: Displacement of [3H]-raclopride from human D2L receptor expressed in human HEK293 cells incubated for 1 hr by radioligand binding assay; type: cell-based; conditions: not given
Sequence (P14416 whole entry): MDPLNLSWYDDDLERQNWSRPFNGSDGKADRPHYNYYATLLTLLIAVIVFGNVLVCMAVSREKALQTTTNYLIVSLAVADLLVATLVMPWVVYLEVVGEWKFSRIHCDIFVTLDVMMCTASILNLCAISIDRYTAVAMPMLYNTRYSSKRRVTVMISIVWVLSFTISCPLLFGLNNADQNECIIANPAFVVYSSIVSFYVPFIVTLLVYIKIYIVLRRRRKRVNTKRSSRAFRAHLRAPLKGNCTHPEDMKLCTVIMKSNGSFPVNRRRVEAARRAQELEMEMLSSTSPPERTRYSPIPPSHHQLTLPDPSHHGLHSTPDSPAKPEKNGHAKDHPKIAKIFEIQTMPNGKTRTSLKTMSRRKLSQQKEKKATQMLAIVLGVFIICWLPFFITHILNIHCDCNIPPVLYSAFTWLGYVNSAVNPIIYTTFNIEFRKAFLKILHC

Going from `Cc1cc(Cl)ccc1OCc1nc(N)nc(N2CCN(C)CC2)n1` to `CN1CCN(c2nc(N)nc(COc3ccc(Cl)cc3Cl)n2)CC1`, the Ki falls from 4.37 µM to 1.23 µM (3.6-fold).

Going from `CN1CCN(c2nc(N)nc(CS(=O)(=O)c3ccccc3Cl)n2)CC1` to `CN1CCN(c2nc(N)nc(CSc3ccccc3Cl)n2)CC1`, the Ki falls from 50.1 µM to 0.329 µM (150-fold).

First: Cc1cc(OCc2nc(N)nc(N3CCN(C)CC3)n2)ccc1Cl
Second: Cc1cccc(OCc2nc(N)nc(N3CCN(C)CC3)n2)c1
The Ki of the first is 1.6-fold higher: 1.22 µM for the first, 0.74 µM for the second. The second binds more tightly here.

Compared with `CC(Sc1ccccc1Cl)c1nc(N)nc(N2CCN(C)CC2)n1` (stereo not given), `CC(Oc1ccccc1Cl)c1nc(N)nc(N2CCN(C)CC2)n1` (stereo not given) is 1.9-fold higher in Ki: 0.52 µM for the first, 1 µM for the second.

`CN1CCN(c2nc(N)nc(CSc3ccccc3)n2)CC1` and `CN1CCN(c2nc(N)nc(COc3cccc(Cl)c3)n2)CC1` are within 1.5-fold of each other in Ki: 0.734 µM for the first, 0.674 µM for the second.

tested on: Rattus norvegicus; test: Antidepressant activity in Wistar rat assessed as ambulation-Y movement moved at 1 mg/kg, ip pretreated for 60 mins and measured for 5 mins by open field test (reference value: 187 +/- 14); type: functional; conditions: not given

In the case of `CC(Oc1ccccc1Cl)c1nc(N)nc(N2CCN(C)CC2)n1` (stereo not given), the Activity is reported as 227.

biological target: T1, 5-hydroxytryptamine receptor 6; test: Displacement of [3H]-LSD from human 5-HT6R expressed in human HEK293 cells incubated for 1 hr by radioligand binding assay; type: cell-based; conditions: not given

First: Cc1cc(Cl)ccc1OCc1nc(N)nc(N2CCN(C)CC2)n1
Second: CN1CCN(c2nc(N)nc(COc3ccc(Cl)cc3Cl)n2)CC1
The Ki of the first is 7.1-fold higher: 0.911 µM for the first, 0.128 µM for the second. The second binds more tightly here.

Going from `CN1CCN(c2nc(N)nc(CS(=O)(=O)c3ccccc3Cl)n2)CC1` to `CN1CCN(c2nc(N)nc(CSc3ccccc3Cl)n2)CC1`, the Ki falls from 3.57 µM to 0.126 µM (28-fold).

Compared with `Cc1cc(OCc2nc(N)nc(N3CCN(C)CC3)n2)ccc1Cl`, `Cc1cccc(OCc2nc(N)nc(N3CCN(C)CC3)n2)c1` is 1.7-fold lower in Ki: 0.355 µM for the first, 0.207 µM for the second.

`CC(Sc1ccccc1Cl)c1nc(N)nc(N2CCN(C)CC2)n1` (stereo not given) and `CC(Oc1ccccc1Cl)c1nc(N)nc(N2CCN(C)CC2)n1` (stereo not given) are within 1.5-fold of each other in Ki: 0.019 µM for the first, 0.023 µM for the second.

Compared with `CN1CCN(c2nc(N)nc(CSc3ccccc3)n2)CC1`, `CN1CCN(c2nc(N)nc(COc3cccc(Cl)c3)n2)CC1` is 5.7-fold higher in Ki: 0.026 µM for the first, 0.148 µM for the second.

biological target: T2, 5-hydroxytryptamine receptor 1A (Homo sapiens, UniProt P08908); test: Displacement of [3H]-8-OH-DPAT from human 5-HT1A expressed in human HEK293 cells assessed as inhibitory constant incubated for 1 hr by radioligand binding assay; type: cell-based; conditions: not given
T2 sequence (P08908 whole entry): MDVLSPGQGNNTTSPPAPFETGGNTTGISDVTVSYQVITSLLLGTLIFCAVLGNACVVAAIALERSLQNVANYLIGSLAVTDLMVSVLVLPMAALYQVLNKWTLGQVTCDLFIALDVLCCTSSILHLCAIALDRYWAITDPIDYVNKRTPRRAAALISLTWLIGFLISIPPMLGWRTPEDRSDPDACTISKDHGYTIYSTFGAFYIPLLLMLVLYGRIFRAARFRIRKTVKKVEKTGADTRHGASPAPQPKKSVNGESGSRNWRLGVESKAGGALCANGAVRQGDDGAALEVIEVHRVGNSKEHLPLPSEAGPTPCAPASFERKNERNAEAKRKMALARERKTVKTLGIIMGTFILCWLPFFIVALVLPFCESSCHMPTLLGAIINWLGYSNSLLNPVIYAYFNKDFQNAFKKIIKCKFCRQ

First: Cc1cc(Cl)ccc1OCc1nc(N)nc(N2CCN(C)CC2)n1
Second: CN1CCN(c2nc(N)nc(COc3ccc(Cl)cc3Cl)n2)CC1
The Ki of the first is 4.8-fold higher: 7.69 µM for the first, 1.61 µM for the second. The second binds more tightly here.

First: CN1CCN(c2nc(N)nc(CS(=O)(=O)c3ccccc3Cl)n2)CC1
Second: CN1CCN(c2nc(N)nc(CSc3ccccc3Cl)n2)CC1
The Ki of the first is higher: greater than 1000 µM for the first, 1.68 µM for the second. The second binds more tightly here.

Going from `Cc1cc(OCc2nc(N)nc(N3CCN(C)CC3)n2)ccc1Cl` to `Cc1cccc(OCc2nc(N)nc(N3CCN(C)CC3)n2)c1`, the Ki rises from 3.58 µM to 15.1 µM (4.2-fold).

`CC(Sc1ccccc1Cl)c1nc(N)nc(N2CCN(C)CC2)n1` (stereo not given) and `CC(Oc1ccccc1Cl)c1nc(N)nc(N2CCN(C)CC2)n1` (stereo not given) are within 1.5-fold of each other in Ki: 3.38 µM for the first, 4.54 µM for the second.

Compared with `CN1CCN(c2nc(N)nc(CSc3ccccc3)n2)CC1`, `CN1CCN(c2nc(N)nc(COc3cccc(Cl)c3)n2)CC1` is 1.7-fold higher in Ki: 4.39 µM for the first, 7.5 µM for the second. The first binds more tightly here.

tested on: not listed separately; test: Mutagenicity in Salmonella typhimurium TA100 assessed as fold increase over MCB at 1 uM preincubated for 90 mins and measured after 72 hrs by Ames test; type: toxicity; conditions: salmonella enterica subsp. enterica serovar typhimurium

First: CC(Sc1ccccc1Cl)c1nc(N)nc(N2CCN(C)CC2)n1 (stereo not given)
Second: CC(Oc1ccccc1Cl)c1nc(N)nc(N2CCN(C)CC2)n1 (stereo not given)
The “fold change (FC)” value of the first is higher: 0.94 for the first, 0.73 for the second.

tested on: Rattus norvegicus; test: Antidepressant activity in Wistar rat assessed as total distance moved at 1 mg/kg, ip pretreated for 60 mins and measured for 5 mins by open field test (reference value: 929 +/- 36 cm); type: functional; conditions: not given

Work on `CC(Oc1ccccc1Cl)c1nc(N)nc(N2CCN(C)CC2)n1` (stereo not given) yielded an Activity of 1005 cm.

tested on: not listed separately; test: Mutagenicity in Salmonella typhimurium TA100 assessed as increase in revertant colonies at 1 uM preincubated for 90 mins and measured after 72 hrs by Ames test; type: toxicity; conditions: salmonella enterica subsp. enterica serovar typhimurium

Going from `CC(Sc1ccccc1Cl)c1nc(N)nc(N2CCN(C)CC2)n1` (stereo not given) to `CC(Oc1ccccc1Cl)c1nc(N)nc(N2CCN(C)CC2)n1` (stereo not given), the Activity falls from 10.33 to 8.
